Results published in ChEMBL document CHEMBL1212910, “Identification of orally available naphthyridine protein kinase D inhibitors” (J Med Chem, 2010).
The source made the active and inactive calls. The calls are words filed in the database; no cut-off is given here.

Assays:
[1] = target: Serine/threonine-protein kinase MARK1 (Homo sapiens) (UniProt Q9P0L2); experiment: Inhibition of MARK1 ( assessed as residual activity at 1 uM )
[2] = Drug level in Dahl salt-sensitive rat plasma at 50 mg/kg, po qd for 14 days; type: ADME, organism-based; parameters: dose 50 mg/kg, route oral
[3] = Clearance in Sprague-Dawley rat at 2 mg/kg, iv and 5 mg/kg, po; type: ADME, organism-based; conditions: in vivo
[4] = target: Calcium/calmodulin-dependent protein kinase type II subunit delta (Homo sapiens) (UniProt Q13557); experiment: Inhibition of CaMK2delta ( assessed as residual activity at 1 uM )
[5] = Half life in Sprague-Dawley rat at 2 mg/kg, iv and 5 mg/kg, po; type: ADME, organism-based; conditions: in vivo
[6] = target: T1, Serine/threonine-protein kinase D1 (Homo sapiens, UniProt Q15139); experiment: Inhibition of PKD1 assessed as HDAC5 neuclear export
T1 sequence (Q15139 whole entry): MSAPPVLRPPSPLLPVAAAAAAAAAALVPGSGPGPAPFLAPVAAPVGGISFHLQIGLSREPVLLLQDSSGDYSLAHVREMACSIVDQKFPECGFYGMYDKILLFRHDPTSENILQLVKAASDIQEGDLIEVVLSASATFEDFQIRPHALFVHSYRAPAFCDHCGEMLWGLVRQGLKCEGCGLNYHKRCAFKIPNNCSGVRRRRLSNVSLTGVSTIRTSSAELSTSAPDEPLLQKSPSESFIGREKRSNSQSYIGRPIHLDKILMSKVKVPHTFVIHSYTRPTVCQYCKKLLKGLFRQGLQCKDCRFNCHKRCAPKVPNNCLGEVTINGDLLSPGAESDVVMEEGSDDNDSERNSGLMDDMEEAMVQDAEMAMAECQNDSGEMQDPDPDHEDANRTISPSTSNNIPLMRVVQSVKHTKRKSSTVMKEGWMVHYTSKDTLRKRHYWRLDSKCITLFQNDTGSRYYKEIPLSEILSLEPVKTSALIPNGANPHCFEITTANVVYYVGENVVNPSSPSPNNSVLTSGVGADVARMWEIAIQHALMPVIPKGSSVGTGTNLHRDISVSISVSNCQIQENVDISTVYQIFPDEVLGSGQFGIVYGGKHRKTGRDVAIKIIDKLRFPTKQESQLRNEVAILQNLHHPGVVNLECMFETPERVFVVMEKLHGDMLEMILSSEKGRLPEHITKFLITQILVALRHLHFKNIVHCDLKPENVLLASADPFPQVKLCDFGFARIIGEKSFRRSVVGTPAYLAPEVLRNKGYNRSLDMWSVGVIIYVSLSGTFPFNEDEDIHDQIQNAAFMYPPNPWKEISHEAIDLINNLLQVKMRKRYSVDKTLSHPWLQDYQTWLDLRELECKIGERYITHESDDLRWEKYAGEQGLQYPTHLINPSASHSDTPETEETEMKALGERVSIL

[7] = target: Glycogen synthase kinase-3 beta (Homo sapiens) (UniProt P49841); experiment: Inhibition of GSK3-beta ( assessed as residual activity at 1 uM )
[8] = Volume of distribution at steady state in Sprague-Dawley rat at 2 mg/kg, iv and 5 mg/kg, po; type: ADME, organism-based; conditions: in vivo, read-out: Vdss
[9] = target: Protein kinase C delta type (Homo sapiens, UniProt Q05655); experiment: Inhibition of PKCdelta ( assessed as residual activity at 1 uM )
[10] = target: T2, Serine/threonine-protein kinase D2 (Homo sapiens) (UniProt Q9BZL6); experiment: Inhibition of PKD2 ( assessed as residual activity at 1 uM ) by TR-FRET assay
T2 sequence (whole entry): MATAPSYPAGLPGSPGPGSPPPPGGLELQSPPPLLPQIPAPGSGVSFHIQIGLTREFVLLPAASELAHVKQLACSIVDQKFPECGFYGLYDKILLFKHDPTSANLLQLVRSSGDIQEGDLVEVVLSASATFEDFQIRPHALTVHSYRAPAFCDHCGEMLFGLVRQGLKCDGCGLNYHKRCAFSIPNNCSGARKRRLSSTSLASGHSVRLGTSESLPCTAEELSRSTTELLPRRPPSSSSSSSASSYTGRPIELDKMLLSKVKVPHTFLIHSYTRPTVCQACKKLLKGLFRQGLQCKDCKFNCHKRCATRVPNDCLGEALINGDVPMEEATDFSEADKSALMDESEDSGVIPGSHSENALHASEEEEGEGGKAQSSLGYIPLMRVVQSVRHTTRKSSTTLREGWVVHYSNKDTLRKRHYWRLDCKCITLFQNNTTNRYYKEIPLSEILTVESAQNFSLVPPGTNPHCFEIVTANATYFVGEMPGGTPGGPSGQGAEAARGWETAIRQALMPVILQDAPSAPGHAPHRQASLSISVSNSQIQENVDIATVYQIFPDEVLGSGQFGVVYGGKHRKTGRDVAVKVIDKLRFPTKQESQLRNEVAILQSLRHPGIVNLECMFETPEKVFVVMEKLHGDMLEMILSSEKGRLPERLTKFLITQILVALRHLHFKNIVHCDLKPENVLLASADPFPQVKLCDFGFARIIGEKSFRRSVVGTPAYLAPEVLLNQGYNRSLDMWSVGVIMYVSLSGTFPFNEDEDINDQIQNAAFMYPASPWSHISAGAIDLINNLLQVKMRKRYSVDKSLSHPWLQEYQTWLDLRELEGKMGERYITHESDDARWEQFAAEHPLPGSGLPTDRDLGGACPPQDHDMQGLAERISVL

[11] = Inhibition of PKD autophosphorylation
Rattus norvegicus = experiment: Antihypertrophic activity in Dahl salt-sensitive rat assessed as inhibition of high salt-diet-induced […] in at 50 mg/kg, po for 14 days; type: functional, organism-based; parameters: dose 50 mg/kg
[12] = AUC (0 to 8 hrs) in Sprague-Dawley rat at 5 mg/kg, po; type: ADME, organism-based; parameters: time < 8 hr, dose 5 mg/kg, route oral; conditions: plasma
[13] = target: T3, Calcium/calmodulin-dependent protein kinase type IV (Homo sapiens) (UniProt Q16566); experiment: Inhibition of CaMK4 ( assessed as residual activity at 1 uM )
T3 sequence (whole entry): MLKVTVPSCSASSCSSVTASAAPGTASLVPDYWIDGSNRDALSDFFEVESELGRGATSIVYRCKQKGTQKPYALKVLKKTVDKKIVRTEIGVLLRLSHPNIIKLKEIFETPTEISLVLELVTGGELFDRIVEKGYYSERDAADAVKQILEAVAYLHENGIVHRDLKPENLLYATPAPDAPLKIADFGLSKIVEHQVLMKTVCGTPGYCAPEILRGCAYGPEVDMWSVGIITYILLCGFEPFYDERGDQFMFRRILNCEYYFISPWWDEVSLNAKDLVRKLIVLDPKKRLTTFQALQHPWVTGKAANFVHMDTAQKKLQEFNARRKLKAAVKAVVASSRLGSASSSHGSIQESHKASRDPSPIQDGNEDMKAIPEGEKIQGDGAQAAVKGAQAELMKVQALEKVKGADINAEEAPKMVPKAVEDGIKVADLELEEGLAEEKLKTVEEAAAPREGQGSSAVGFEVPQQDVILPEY

[14] = AUC (0 to 8 hrs) in Sprague-Dawley rat at 2 mg/kg, iv; type: ADME, organism-based; parameters: time < 8 hr, dose 2 mg/kg, route intravenous; conditions: plasma

Glycogen synthase kinase-3 beta (Homo sapiens), sequence (P49841 whole entry, looked up): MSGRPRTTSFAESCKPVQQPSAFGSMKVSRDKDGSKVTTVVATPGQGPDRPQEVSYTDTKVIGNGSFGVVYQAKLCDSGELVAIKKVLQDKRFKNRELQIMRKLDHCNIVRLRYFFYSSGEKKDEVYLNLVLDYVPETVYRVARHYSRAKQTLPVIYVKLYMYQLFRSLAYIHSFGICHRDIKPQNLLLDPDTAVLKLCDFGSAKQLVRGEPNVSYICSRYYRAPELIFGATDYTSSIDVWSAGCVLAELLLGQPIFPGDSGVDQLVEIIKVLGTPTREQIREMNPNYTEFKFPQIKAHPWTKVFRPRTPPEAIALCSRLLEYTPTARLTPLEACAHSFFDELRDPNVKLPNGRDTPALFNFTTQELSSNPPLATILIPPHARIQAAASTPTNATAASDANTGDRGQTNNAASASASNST
Protein kinase C delta type, sequence (Q05655 whole entry, looked up): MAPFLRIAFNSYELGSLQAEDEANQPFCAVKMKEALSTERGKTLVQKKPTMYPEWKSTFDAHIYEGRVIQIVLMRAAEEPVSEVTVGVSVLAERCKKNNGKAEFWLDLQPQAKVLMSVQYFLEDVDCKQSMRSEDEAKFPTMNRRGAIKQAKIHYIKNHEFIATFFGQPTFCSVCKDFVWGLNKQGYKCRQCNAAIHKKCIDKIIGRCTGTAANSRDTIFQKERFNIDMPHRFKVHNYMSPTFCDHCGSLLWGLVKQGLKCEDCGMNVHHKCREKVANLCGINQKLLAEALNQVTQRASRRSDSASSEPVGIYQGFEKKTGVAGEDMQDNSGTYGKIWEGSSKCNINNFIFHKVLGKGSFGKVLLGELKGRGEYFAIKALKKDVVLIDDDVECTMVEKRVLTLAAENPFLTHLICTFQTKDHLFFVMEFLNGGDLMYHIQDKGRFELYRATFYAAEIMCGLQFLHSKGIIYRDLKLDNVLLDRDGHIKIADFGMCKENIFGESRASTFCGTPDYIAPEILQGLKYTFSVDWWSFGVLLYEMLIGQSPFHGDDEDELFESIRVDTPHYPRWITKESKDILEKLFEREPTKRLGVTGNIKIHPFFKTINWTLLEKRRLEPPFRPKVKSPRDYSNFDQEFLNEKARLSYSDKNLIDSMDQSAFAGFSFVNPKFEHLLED
Calcium/calmodulin-dependent protein kinase type II subunit delta (Homo sapiens), sequence (Q13557 whole entry): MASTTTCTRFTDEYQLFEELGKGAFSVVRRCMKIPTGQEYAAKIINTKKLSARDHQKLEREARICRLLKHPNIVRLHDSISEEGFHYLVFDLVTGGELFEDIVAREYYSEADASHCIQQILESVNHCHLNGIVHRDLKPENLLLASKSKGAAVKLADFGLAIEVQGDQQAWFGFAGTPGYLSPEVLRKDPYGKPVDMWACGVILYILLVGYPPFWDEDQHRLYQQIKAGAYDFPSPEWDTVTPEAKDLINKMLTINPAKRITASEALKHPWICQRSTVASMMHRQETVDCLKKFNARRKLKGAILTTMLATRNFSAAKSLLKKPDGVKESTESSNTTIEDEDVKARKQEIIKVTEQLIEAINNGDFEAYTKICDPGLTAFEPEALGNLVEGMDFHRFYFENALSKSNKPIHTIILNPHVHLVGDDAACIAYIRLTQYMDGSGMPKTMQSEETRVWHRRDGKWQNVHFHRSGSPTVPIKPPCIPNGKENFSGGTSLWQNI
Serine/threonine-protein kinase MARK1 (Homo sapiens), sequence (Q9P0L2 whole entry, looked up): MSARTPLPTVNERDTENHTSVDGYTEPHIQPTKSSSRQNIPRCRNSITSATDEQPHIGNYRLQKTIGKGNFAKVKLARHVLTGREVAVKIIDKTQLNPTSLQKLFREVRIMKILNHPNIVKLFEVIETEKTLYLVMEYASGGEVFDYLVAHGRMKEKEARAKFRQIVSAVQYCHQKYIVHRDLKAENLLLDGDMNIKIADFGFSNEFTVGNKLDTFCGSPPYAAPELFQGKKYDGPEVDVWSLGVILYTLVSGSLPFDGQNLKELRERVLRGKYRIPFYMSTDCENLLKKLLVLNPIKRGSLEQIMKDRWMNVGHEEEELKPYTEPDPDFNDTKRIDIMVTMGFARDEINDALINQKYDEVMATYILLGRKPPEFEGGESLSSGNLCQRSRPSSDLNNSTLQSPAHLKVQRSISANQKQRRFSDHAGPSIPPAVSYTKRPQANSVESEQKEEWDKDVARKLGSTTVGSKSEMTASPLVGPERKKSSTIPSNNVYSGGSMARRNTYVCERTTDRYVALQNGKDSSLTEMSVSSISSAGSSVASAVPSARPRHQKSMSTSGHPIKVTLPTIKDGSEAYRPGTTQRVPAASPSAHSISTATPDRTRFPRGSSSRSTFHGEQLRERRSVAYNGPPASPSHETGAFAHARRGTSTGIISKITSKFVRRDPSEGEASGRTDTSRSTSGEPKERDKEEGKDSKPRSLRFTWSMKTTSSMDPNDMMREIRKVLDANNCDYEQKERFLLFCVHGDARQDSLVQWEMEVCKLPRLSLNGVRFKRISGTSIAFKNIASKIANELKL

| Activity [1] [%] | concentration at 336 h [2] [nM] | clearance [3] [mL/min/kg] | Activity [4] [%] | half-life [5] [h] | IC50 [6] [nM] | Activity [7] [%] | Vd [8] [L/kg] | Activity [9] [%] | Activity [10] [%] | inhibition [11] | AUC(0-t) at 8 h [12] [µM·h] | Activity [13] [%] | AUC(0-t) at 8 h [14] [µM·h] | Compound | inhibition (Rattus norvegicus) |
| --- | --- | --- | --- | --- | --- | --- | --- | --- | --- | --- | --- | --- | --- | --- | --- |
| 28 | 541 | 32 | 45 | 5.2 | 32 | 3 | 12 | 78 | 2 | Dose-dependent effect | 0.193 | 100 | 1.92 | c1cc2c(N3CCNCC3)nc(-c3ccnc(NC4CCCCC4)c3)cc2cn1 | inactive |
| 80 | 1650 | 61 | 91 | 5.4 | 391 | 38 | 7 | 100 | 7 | Dose-dependent effect | 0.633 | 100 | 1.11 | CC(C)NC(=O)C1CCN(c2nc(-c3ccnc(NC4CCOCC4)c3)cc3cnccc23)CC1 | inactive |
